In patent US11890279B2, “Quinolines that modulate SERCA and their use for treating disease” (Neurodon Corporation, priority 2020, dated 2024):

Key:
CSM14.1 cells = assay: ER stress cell survival assay (thapsigargin); format: cell-based; conditions: compound 2 μM; about 15 μM thapsigargin; CSM14.1 cells;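 note: survival read as CellTiter-Glo luminescence after overnight incubation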
Protocol: ER Stress Cell Survival Assay
CSM14.1 cells were maintained in Complete Medium at 32° C.; wherein the Complete Medium contained Dulbecco's modified eagle medium (DMEM) with 10% fetal bovine serum (FSB), 1% L-glutamine, 100 IU/mL penicillin, and 100 μg/mL streptomycin. The cells were recovered from cultures by trypsinization and then seeded in 384 well plates (Greiner #781098) at a concentration of 1,000 cells/well in 20 μL of DMEM Assay Medium, wherein the DMEM Assay Medium contained 2% FBS, 100 IU/mL penicillin, and 100 μg/mL streptomycin. Seeding was performed using a MultiDrop Combi reagent broadcaster. The plates were incubated overnight at 32° C.
A test compound was prepared by 2-fold serial dilution in 100% DMSO using a BIOMEK® 2000 liquid handler (Beckman Coulter). A dose-response curve containing 10 concentrations of the test compound was obtained. Using a BIOMEK® FX liquid handler (Beckman Coulter), 2.5 μL of the test compound was transferred from the 100% DMSO serial dilution plate to an intermediate plate containing 47.5 μL of DMEM Assay Medium containing 2% FBS, 100 IU/mL penicillin, and 100 μg/mL streptomycin and mixed. To reduce or eliminate the interference from the compound's precipitation, 6 μL of the diluted compound was immediately transferred to the assay plate to achieve a high compound concentration of 100 μM in 99% DMEM Assay Medium and 1% DMSO. After the assay plates were incubated for 2 hrs, 4 μL of 112.5 μM thapsigargin (TG) (DMSO stock diluted into Assay TC Medium) was dispensed into each testing well with a MultiDrop Combi reagent broadcaster for a final concentration of about 15 μM TG. The tissue culture media (4 μL) containing vehicle only was transferred manually to each control cell using a 16 channel electronic pipette. […] High luminescence indicates cell survival.
Alternatively, a test compound was tested at a single compound concentration (e.g., 2 μM) to determine the effect of the compound on cell survival in comparison with vehicle.

N2a cells = assay: Protection against hydrogen peroxide-induced cell death, N2a; format: cell-based, mouse; conditions: compound 40 μM; hydrogen peroxide 200 μM
Protocol: Protection against Hydrogen Peroxide-induced Cell-death. N2a cells grown in 96-well plates were exposed to a test compound (40 μM) for 2 hrs before addition of hydrogen peroxide (200 μM). After 40 min of incubation with hydrogen peroxide, ALAMARBLUE® regent (10% v/v) was added to the wells. Fluorescence reading was taken 2 hrs after the addition of the ALAMARBLUE® regent. Cell-viability was calculated as a percentage of relative fluorescence unit (RFU) compared to control.
The results are summarized in Table 2, where A represents a value greater than 50% cell rescue, B represents a value between 10% to 50% cell rescue, C represents a value between 1% to 10% cell rescue, and D represents a value no greater than 1% cell rescue.

[1] = Pharmacokinetics in CD-1 mice; format: in vivo, mouse; conditions: CD-1 mice
Protocol: Pharmacokinetics of test compounds were assessed in CD-1 mice. The compounds were formulated at 1 mg/mL in DMSO/Tween 80/water (10/10/80, vol/vol/vol) and dosed at 2 mg/kg intravenous (i.v.) or 10 mg/kg by oral gavage (P.O.) in triplicate. Blood was drawn at 0.25 h, 0.5 h, 1 hr, 2 hrs, 4 hrs, 8 hrs, and 24 hrs into EDTA containing tubes and plasma was harvested by centrifugation. Plasma (10 μL) containing 50% acetonitrile in water (5 μL) was added to 200 μL of ACN containing an internal standard. The samples were vortexed for 30 s. After centrifugation at […] and 4,000 rpm for 15 min, the supernatant was diluted 3 times with water. Then, 20 μL of diluted supernatant was injected into the LC/MS/MS system for quantitative analysis. The samples were injected onto an Agilent ZORBAX XDB-Phenyl 5μ column (50×2.10 mm). Mobile Phase A was water with 0.1% formic acid. Mobile Phase B was acetonitrile with 0.1% formic acid. Separation was achieved using a gradient of 70% A/30% B to 0% A/100% B over 2.10 min. A Shimadzu LCMS-8050 equipped with a turbo ion spray source was used for all analytical measurements. A positive ion MRM method was developed. Peak areas of the product ion were measured against the peak areas of the internal standard. Data was fit using WinNonLin (Pharsight Corporation, Mountain View, CA).

[2] = mouse, plasma, 2 mg/kg i.v. or 10 mg/kg P.O.

Structure (SMILES) | Cell Survival (CSM14.1 cells) | N2a Cells (H2O2-induced) cell rescue (N2a cells) | also measured
Cc1ccc2cccc(NC(=O)c3ccc(Br)cc3)c2n1 [Compound C1, 4-Bromo-N-(2-methylquinolin-8-yl)benzamide] | A (A represents a value greater than 50%) | – | –
Cc1ccc2cccc(NC(=O)c3ccccc3F)c2n1 [Compound C2, 2-Fluoro-N-(2-methylquinolin-8-yl)benzamide] | A (A represents a value greater than 50%) | – | –
Cc1ccc2cccc(NC(=O)c3ccccc3[N+](=O)[O-])c2n1 [Compound C3, 2-Nitro-N-(2-methylquinolin-8-yl)benzamide] | B (B represents a value between 10% and 50%) | – | –
Cc1ccc2cccc(NC(=O)c3cccc(OC(F)(F)F)c3)c2n1 [Compound C4, 3-Trifluoromethoxy-N-(2-methylquinolin-8-yl)benzamide] | B (B represents a value between 10% and 50%) | – | –
Cc1ccc2cccc(NC(=O)c3cccc(F)c3)c2n1 [Compound C6, 3-Fluoro-N-(2-methylquinolin-8-yl)benzamide] | C (C represents a value between 1% and 10%) | – | –
Cc1ccc2cccc(NC(=O)c3cccc([N+](=O)[O-])c3)c2n1 [Compound C7, 3-Nitro-N-(2-methylquinolin-8-yl)benzamide] | C (C represents a value between 1% and 10%) | – | –
Cc1ccc2cccc(NC(=O)c3ccc([N+](=O)[O-])cc3)c2n1 [Compound C8, 4-Nitro-N-(2-methylquinolin-8-yl)benzamide] | D (D represents a value no greater than 1%) | – | –
Cc1ccc2cccc(NC(=O)c3ccccc3Cl)c2n1 [Compound C9, 2-Chloro-N-(2-methylquinolin-8-yl)benzamide] | D (D represents a value no greater than 1%) | – | –
Cc1ccc2cccc(NC(=O)c3ccc(OC(F)(F)F)cc3)c2n1 [Compound C11, 4-Trifluoromethoxy-N-(2-methylquinolin-8-yl)benzamide] | D (D represents a value no greater than 1%) | – | –
Cc1ccc2cccc(NC(=O)c3cccc(C(F)(F)F)c3)c2n1 [Compound C12, 3-Trifluoromethyl-N-(2-methylquinolin-8-yl)benzamide] | D (D represents a value no greater than 1%) | – | –
CCOc1ccc(C(=O)Nc2cccc3ccc(C)nc23)cc1 [Compound C13, 4-Ethoxy-N-(2-methylquinolin-8-yl)benzamide] | D (D represents a value no greater than 1%) | – | –
Cc1ccc2cccc(NC(=O)c3ccc(F)cc3)c2n1 [Compound C14, 4-Fluoro-N-(2-methylquinolin-8-yl)benzamide] | D (D represents a value no greater than 1%) | – | –
Cc1ccc2cccc(NC(=O)c3cccc(Cl)c3)c2n1 [Compound C15, 3-Chloro-N-(2-methylquinolin-8-yl)benzamide] | D (D represents a value no greater than 1%) | – | –
Cc1ccc2cccc(NC(=O)c3cccc(Br)c3)c2n1 [Compound C16, 3-Bromo-N-(2-methylquinolin-8-yl)benzamide] | D (D represents a value no greater than 1%) | – | –
Cc1ccc2cccc(NC(=O)c3cccs3)c2n1 [Compound G1, N-(2-Methylquinolin-8-yl)thiophene-2-carboxamide] | – | B (B represents a value between 10% to 50% cell rescue) | –
Cc1ccc2cccc(NC(=O)c3sccc3C)c2n1 [Compound G3, 3-Methyl-N-(2-methylquinolin-8-yl)thiophene-2-carboxamide] | – | B (B represents a value between 10% to 50% cell rescue) | –
Cc1ccc2cccc(NC(=O)c3ccc(Cl)s3)c2n1 [Compound G4, 5-Chloro-N-(2_methylquinolin-8-yl)thiophene-2-carboxamide] | – | B (B represents a value between 10% to 50% cell rescue) | –
CC(=O)c1ccc(C(=O)Nc2cccc3ccc(C)nc23)s1 [Compound G5, 5-Acetyl-N-(2-methylquinolin-8-yl)thiophene-2-carboxamide] | – | B (B represents a value between 10% to 50% cell rescue) | –
Cc1ccc2cccc(NC(=O)c3cc(Br)cs3)c2n1 [Compound G8, 4-Bromo-N-(2-methylquinolin-8-yl)thiophene-2-carboxamide] | – | – | F ([1]; 10 mg/kg P.O. vs 2 mg/kg i.v.): 0.12%; AUC [1, 2]: 0.78 ng·h/mL; Cmax [1, 2]: 10 nM; half-life [1, 2]: 36 min
O=C(Nc1cccc2cccnc12)c1ccc(Br)s1 [Compound H1, 5-Bromo-N-(quinolin-8-yl)thiophene-2-carboxamide] | – | B (B represents a value between 10% to 50% cell rescue) | –
O=C(Nc1cccc2cccnc12)c1cccs1 [Compound H2, N-(quinolin-8-yl)thiophene-2-carboxamide] | – | B (B represents a value between 10% to 50% cell rescue) | –
Cc1ccc(C(=O)Nc2cccc3cccnc23)s1 [Compound H3, 5-Methyl-N-(quinolin-8-yl)thiophene-2-carboxamide] | – | A (A represents a value greater than 50% cell rescue) | –
Cc1ccsc1C(=O)Nc1cccc2cccnc12 [Compound H4, 3-Methyl-N-(quinolin-8-yl)thiophene-2-carboxamide] | – | A (A represents a value greater than 50% cell rescue) | –
O=C(Nc1cccc2cccnc12)c1ccc(Cl)s1 [Compound H5, 5-Chloro-N-(quinolin-8-yl)thiophene-2-carboxamide] | – | B (B represents a value between 10% to 50% cell rescue) | –
CC(=O)c1ccc(C(=O)Nc2cccc3cccnc23)s1 [Compound H6, 5-Acetyl-N-(quinolin-8-yl)thiophene-2-carboxamide] | – | B (B represents a value between 10% to 50% cell rescue) | –
O=C(Nc1cccc2cccnc12)c1cc2ccccc2o1 [Compound H7, N-(Quinolin-8-yl)benzofuran-2-carboxamide] | – | B (B represents a value between 10% to 50% cell rescue) | –
O=C(Nc1cccc2cccnc12)c1ccc([N+](=O)[O-])s1 [Compound H8, 5-Nitro-N-(quinolin-8-yl)thiophene-2-carboxamide] | – | B (B represents a value between 10% to 50% cell rescue) | –
O=C(Nc1cccc2cccnc12)c1cc(Br)cs1 [Compound H9, 4-Bromo-N-(quinolin-8-yl)thiophene-2-carboxamide] | – | A (A represents a value greater than 50% cell rescue) | –
O=C(Nc1cccc2cccnc12)c1sc(Br)cc1Br [Compound H10, 3,5-Dibromo-N-(quinolin-8-yl)thiophene-2-carboxamide] | – | B (B represents a value between 10% to 50% cell rescue) | –
O=C(Nc1cccc2cccnc12)c1cc(Br)c(Br)s1 [Compound H11, 4,5-Dibromo-N-(quinolin-8-yl)thiophene-2-carboxamide] | – | A (A represents a value greater than 50% cell rescue) | –
